Earlier results on one compound are cited in patent US20040223971A1, “Composition and uses of galectin antagonists” (GlycoGenesys, Inc., priority 2003, published 2004).

Structures are written as SMILES.

In one series the test system is BT549 cells. To be noted: BT549 cells without detectable galectin-3.
In series [1] the test system is galectin-3 transfected BT549 cells.

`O=c1c(-c2ccc(O)cc2)coc2cc(O)cc(O)c12` [genistein]: the apoptosis induction entry in the series with BT549 cells is “effectively induces apoptosis”. For the same compound, the “cell cycle arrest / apoptosis” value in series [1] is listed as “cell cycle arrest at the G(2)/M phase takes place without apoptosis induction”.
